Assay type in all cases: functional
The test system of experiment [1] is Candida albicans. As to the kind of experiment: Antifungal activity against Candida albicans ATCC 90028 assessed as planktonic growth inhibition at 0.16 uM after 48 hrs by M27-A3 protocol based method relative to control. Conditions: ATCC 90028, 48 h, read-out: GI.
Experiment [2] deals with Candida albicans. As to the kind of experiment: Antifungal activity against Candida albicans ATCC 90028 assessed as planktonic growth inhibition at 5.18 uM after 48 hrs by M27-A3 protocol based method relative to control. Conditions: ATCC 90028, 48 h, read-out: GI.
Experiment [3] concerns Candida albicans. Put plainly: Antifungal activity against Candida albicans ATCC 90028 assessed as planktonic growth inhibition at 0.32 uM after 48 hrs by M27-A3 protocol based method relative to control. The conditions noted are these: ATCC 90028, 48 h, read-out: GI.
Experiment [4] has as its system Candida albicans. Put plainly: Antifungal activity against Candida albicans ATCC 90028 assessed as planktonic growth inhibition at 20.73 uM after 48 hrs by M27-A3 protocol based method relative to control. Conditions: ATCC 90028, 48 h, read-out: GI.
For experiment [5], the system named is Candida albicans. Put plainly: Antifungal activity against Candida albicans ATCC 90028 assessed as planktonic growth inhibition at 1.3 uM after 48 hrs by M27-A3 protocol based method relative to control. Conditions: ATCC 90028, 48 h, read-out: GI.
Experiment [6] relates to Candida albicans. Put plainly: Antifungal activity against Candida albicans ATCC 90028 assessed as planktonic growth inhibition at 41.47 uM after 48 hrs by M27-A3 protocol based method relative to control. Conditions: ATCC 90028, 48 h, read-out: GI.
Experiment [7] relates to Candida albicans. Put plainly: Antifungal activity against Candida albicans ATCC 90028 assessed as planktonic growth inhibition at 0.08 uM after 48 hrs by M27-A3 protocol based method relative to control. The conditions noted are these: ATCC 90028, 48 h, read-out: GI.
Experiment [8] concerns Candida albicans. Put plainly: Antifungal activity against Candida albicans ATCC 90028 assessed as planktonic growth inhibition at 0.65 uM after 48 hrs by M27-A3 protocol based method relative to control. Conditions: ATCC 90028, 48 h, read-out: GI.
The subject of experiment [9] is Candida albicans. Put plainly: Fungicidal activity against Candida albicans ATCC 90028 assessed as log reduction in fungal load incubated for 48 hrs followed by replating on sabouraud dextrose agar plate and measured after 48 hrs.
Experiment [10] has as its system Candida albicans. Put plainly: Antifungal activity against Candida albicans ATCC 90028 assessed as planktonic growth inhibition at 2.59 uM after 48 hrs by M27-A3 protocol based method relative to control. Conditions: ATCC 90028, 48 h, read-out: GI.
In experiment [11] the test system is Candida albicans. Put plainly: Antifungal activity against Candida albicans ATCC 90028 assessed as planktonic growth inhibition at 10.37 uM after 48 hrs by M27-A3 protocol based method relative to control. The conditions noted are these: ATCC 90028, 48 h, read-out: GI.
Experiment [12] deals with Candida albicans. Put plainly: Antifungal activity against Candida albicans ATCC 90028 assessed as planktonic growth inhibition at 1.37 uM after 48 hrs by M27-A3 protocol based method relative to control. Conditions: ATCC 90028, 48 h, read-out: GI.
Experiment [13] has as its system Candida albicans. Put plainly: Antifungal activity against Candida albicans ATCC 90028 assessed as planktonic growth inhibition at 0.09 uM after 48 hrs by M27-A3 protocol based method relative to control. Conditions: ATCC 90028, 48 h, read-out: GI.
Experiment [14] concerns Candida albicans. As to the kind of experiment: Antifungal activity against Candida albicans ATCC 90028 assessed as planktonic growth inhibition at 2.74 uM after 48 hrs by M27-A3 protocol based method relative to control. Conditions: ATCC 90028, 48 h, read-out: GI.
Experiment [15] relates to Candida albicans. As to the kind of experiment: Antifungal activity against Candida albicans ATCC 90028 assessed as planktonic growth inhibition at 21.89 uM after 48 hrs by M27-A3 protocol based method relative to control. Conditions: ATCC 90028, 48 h, read-out: GI.
Experiment [16] relates to Candida albicans. Put plainly: Antifungal activity against Candida albicans ATCC 90028 assessed as planktonic growth inhibition at 0.17 uM after 48 hrs by M27-A3 protocol based method relative to control. Conditions: ATCC 90028, 48 h, read-out: GI.
Experiment [17] has as its system Candida albicans. As to the kind of experiment: Antifungal activity against Candida albicans ATCC 90028 assessed as planktonic growth inhibition at 0.68 uM after 48 hrs by M27-A3 protocol based method relative to control. The conditions noted are these: ATCC 90028, 48 h, read-out: GI.
The subject of experiment [18] is Candida albicans. As to the kind of experiment: Antifungal activity against Candida albicans ATCC 90028 assessed as planktonic growth inhibition at 10.95 uM after 48 hrs by M27-A3 protocol based method relative to control. Conditions: ATCC 90028, 48 h, read-out: GI.
Experiment [19] deals with Candida albicans. Put plainly: Antifungal activity against Candida albicans ATCC 90028 assessed as planktonic growth inhibition at 0.34 uM after 48 hrs by M27-A3 protocol based method relative to control. Conditions: ATCC 90028, 48 h, read-out: GI.
Experiment [20] has as its system Candida albicans. As to the kind of experiment: Antifungal activity against Candida albicans ATCC 90028 assessed as planktonic growth inhibition at 5.47 uM after 48 hrs by M27-A3 protocol based method relative to control. The conditions noted are these: ATCC 90028, 48 h, read-out: GI.
Experiment [21] deals with Candida albicans. Put plainly: Antifungal activity against Candida albicans ATCC 90028 assessed as planktonic growth inhibition at 43.78 uM after 48 hrs by M27-A3 protocol based method relative to control. Conditions: ATCC 90028, 48 h, read-out: GI.
Experiment [22] relates to Candida albicans. Put plainly: Antifungal activity against Candida albicans ATCC 90028 assessed as planktonic growth inhibition at 2.77 uM after 48 hrs by M27-A3 protocol based method relative to control. Conditions: ATCC 90028, 48 h, read-out: GI.
In experiment [23] the test system is Candida albicans. As to the kind of experiment: Antifungal activity against Candida albicans ATCC 90028 assessed as planktonic growth inhibition at 1.38 uM after 48 hrs by M27-A3 protocol based method relative to control. Conditions: ATCC 90028, 48 h, read-out: GI.
The test system of experiment [24] is Candida albicans. As to the kind of experiment: Antifungal activity against Candida albicans ATCC 90028 assessed as planktonic growth inhibition at 11.07 uM after 48 hrs by M27-A3 protocol based method relative to control. Conditions: ATCC 90028, 48 h, read-out: GI.
Experiment [25] has as its system Candida albicans. As to the kind of experiment: Antifungal activity against Candida albicans ATCC 90028 assessed as planktonic growth inhibition at 44.26 uM after 48 hrs by M27-A3 protocol based method relative to control. The conditions noted are these: ATCC 90028, 48 h, read-out: GI.
In experiment [26] the test system is Candida albicans. Put plainly: Antifungal activity against Candida albicans ATCC 90028 assessed as planktonic growth inhibition at 22.13 uM after 48 hrs by M27-A3 protocol based method relative to control. The conditions noted are these: ATCC 90028, 48 h, read-out: GI.
For experiment [27], the system named is Candida albicans. Put plainly: Antifungal activity against Candida albicans ATCC 90028 assessed as planktonic growth inhibition at 5.53 uM after 48 hrs by M27-A3 protocol based method relative to control. Conditions: ATCC 90028, 48 h, read-out: GI.
For experiment [28], the system named is Candida albicans. Put plainly: Antifungal activity against Candida albicans ATCC 90028 assessed as planktonic growth inhibition at 0.69 uM after 48 hrs by M27-A3 protocol based method relative to control. The conditions noted are these: ATCC 90028, 48 h, read-out: GI.
In experiment [29] the test system is Candida albicans. Put plainly: Antifungal activity against Candida albicans ATCC 90028 assessed as planktonic growth inhibition at 0.35 uM after 48 hrs by M27-A3 protocol based method relative to control. The conditions noted are these: ATCC 90028, 48 h, read-out: GI.

In the case of `Fc1ccc(C2CCCN2CCCn2nnc(-c3ccccc3Cl)n2)cc1` (stereo not drawn), the inhibition of growth at 0.16 µM in [1] amounted to 98.7%. Also, in experiment [2], the inhibition of growth at 5.18 µM came to 99.3%. In addition, in experiment [3], the inhibition of growth at 0.32 µM is 98.9%. Besides, the inhibition of growth at 20.73 µM in [4] turned out to be 99.5%. In addition, the inhibition of growth at 1.3 µM in experiment [5] worked out at 99.2%. Moreover, the inhibition of growth at 41.47 µM in experiment [6] was found to be 99.6%. Further, the inhibition of growth at 0.08 µM in [7] came out at 98.6%. For the same molecule, the inhibition of growth at 0.65 µM in experiment [8] stood at 99%. The “log(activity)” value in experiment [9] is reported as -0.4. In experiment [10], the inhibition of growth at 2.59 µM came to 99.3%. Also, the inhibition of growth at 10.37 µM in experiment [11] came to 99.4%.
In the case of `Cc1ccc(-c2nnn(CCCN3CCCC3c3ccc(F)cc3)n2)cc1` (stereo not drawn), in experiment [12], the inhibition of growth at 1.37 µM is 99.2%. Further, the inhibition of growth at 0.09 µM in experiment [13] worked out at 99.1%. The inhibition of growth at 2.74 µM in [14] came to 99.2%. For the same molecule, the “log(activity)” value in experiment [9] is recorded as -0.3. Further, the inhibition of growth at 21.89 µM in [15] worked out at 98.7%. In experiment [16], the inhibition of growth at 0.17 µM came out at 99.1%. In [17], the inhibition of growth at 0.68 µM turned out to be 99.1%. Also, the inhibition of growth at 10.95 µM in [18] turned out to be 99.4%. Also, the inhibition of growth at 0.34 µM in experiment [19] turned out to be 99.2%. Besides, in [20], the inhibition of growth at 5.47 µM came to 99%. The inhibition of growth at 43.78 µM in experiment [21] worked out at 98.9%.
Regarding `Cc1ccc(-c2nnn(CCCN3CCCC3c3ccc(C)cc3)n2)cc1` (stereo not drawn), the inhibition of growth at 2.77 µM in experiment [22] was found to be 99%. The inhibition of growth at 1.38 µM in [23] came out at 99%. In addition, in [13], the inhibition of growth at 0.09 µM was found to be 99%. In addition, the inhibition of growth at 11.07 µM in experiment [24] was 98.9%. In addition, the inhibition of growth at 44.26 µM in experiment [25] is 99.6%. Also, in experiment [9], the “log(activity)” value is reported as -0.6. The inhibition of growth at 22.13 µM in experiment [26] was 99.3%. For the same molecule, the inhibition of growth at 0.17 µM in experiment [16] turned out to be 99.3%. Also, the inhibition of growth at 5.53 µM in experiment [27] is 99.3%. The inhibition of growth at 0.69 µM in experiment [28] came to 99.2%. In addition, in experiment [29], the inhibition of growth at 0.35 µM was 99.1%.

The values are drawn from ChEMBL document CHEMBL4411303, “Synthesis of tetrazole derivatives bearing pyrrolidine scaffold and evaluation of their antifungal activity against Candida albicans” (Eur J Med Chem, 2019).
